# Columns and labels:
# [1] = system: rat air pouch model of crystal-induced arthropathy (MSU); assay: Rat air pouch model, Example 6 (Compounds 2, 3 and 4); format: in vivo
# Experimental: (§1) Sodium hydroxide (40 g, Fisher Scientific) was dissolved in de-ionized water (100 mL, dH2O) to provide a 10N solution. Uric acid (16 g, Sigma) was added to de-ionized water (3400 mL) containing sodium hydroxide solution (11.8 mL, 10N) and heated to 60° C. with constant stirring. […] The resulting clear solution was cooled to 4-8° C., resulting in the formation of crystals, which were isolated by filtration, washed three times with de-ionized wa[…]) and dried at 37° C. The dried mono sodium urate crystals were sifted into an air-tight container for storage. […] Methylcellulose (0.4 g, Sigma) was dissolved in de-ionized water (100 mL) to provide a 0.4% solution used as vehicle. […] Test compounds were suspended in vehicle to provide the desired concentrations, and diluted accordingly. […] Male Sprague-Dawley rats (Charles River Laboratories, 160-180 g) were received, individually examined and housed in cages of five rats each. The animals were in apparent good health with no clinical signs of disease or distress. The rats were placed in quarantine with daily inspections, ear notched for identification purposes and shaved at the nape of the neck. The rats were anesthetized (isoflurane), and the nape of the neck was cleansed with 70% isopropanol (Butler Animal Health Supply) followed by povidone-iodine solution (Ricca Chemical Co.). Sterile air (30 mL, 0.2 μm, Millipore) was injected subcutaneously using a 23 G×11⁄2 inch needle fixed to a 30 mL syringe. The rats were returned to routine housing with no adverse reactions observed. The rats were anesthetized (isoflurane), and the nape of the neck was cleansed with 70% isopropanol (Butler Animal Health Supply) followed by povidone-iodine solution (Ricca Chemical Co.). Sterile air (15 mL, 0.11 μm, Millipore) was injected subcutaneously using a 23 G×11⁄2 inch needle fixed to a 20 mL syringe. The rats were returned to routine housing with no adverse reactions observed. The rats were weighed and sorted into treatment groups based on average body weight. As appropriate, the rats were dosed orally with test compound or vehicle (saline alone). […] Thirty minutes after SC injection or two hours after PO dosing, MSU (15 mL) was injected into the air pouch using an 18 G×2 inch needle fitted to a 20 mL syringe. Control group was injected with 15 mL sterile saline (vehicle). The injection sites were closed (collodion, Macron) and the rats returned to their cages with no adverse effects observed. Four hours after MSU/saline injection, the rats were anesthetized and heparinized saline (5 mL, 10 U/mL) was injected into the air pouch. […] An aliquot of the exudate was transferred to green Eppendorf tubes for total white blood cell (WBC) measurement. After allowing the MSU crystals to settle out for ten minutes, an aliquot of the exudate was transferred to heparinized microtainer tubes (Becton Dickinson) for differential white blood cell counts. The remainder of the exudate was centrifuged and an aliquot of the supernatants was dispensed to labeled clear Eppendorf tubes and stored at -80° C. The rats were exsanguinated into pre-chilled serum separator tubes, processed to serum, and 0.5 mL aliquot was stored at -80° C. in labeled Eppendorf tubes. […] [table]
# [2] = system: rat air pouch model of crystal-induced arthropathy (MSU); assay: Rat air pouch model, Example 7 (Compounds 3 and 4 in combination with colchicine); format: in vivo
# Experimental: as §1
# CXCR-2 = target: T1, CXCR-2 (Homo sapiens, UniProt P25025); conditions: cited from earlier work
# T1 sequence (P25025 1-360): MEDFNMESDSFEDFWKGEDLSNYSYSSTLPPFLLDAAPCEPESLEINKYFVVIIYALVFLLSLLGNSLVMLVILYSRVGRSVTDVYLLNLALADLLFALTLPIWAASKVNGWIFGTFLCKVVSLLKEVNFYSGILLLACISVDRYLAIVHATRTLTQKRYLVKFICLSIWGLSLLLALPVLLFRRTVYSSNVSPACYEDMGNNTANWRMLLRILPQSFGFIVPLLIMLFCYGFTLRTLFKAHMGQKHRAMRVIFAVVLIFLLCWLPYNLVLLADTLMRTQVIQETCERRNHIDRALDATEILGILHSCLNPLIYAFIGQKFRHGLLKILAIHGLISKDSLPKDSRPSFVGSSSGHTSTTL
# [3] = 3.0 umol/kg PO + Colchicine 0.1 mpk SC, Group 10
# [4] = 1 umol/kg PO + Colchicine 0.1 mpk SC, Group 9
smiles,measurement,setting,value
"COc1cc2c(c(OC)c1OC)-c1ccc(OC)c(=O)cc1[C@@H](NC(C)=O)CC2 [Colchicine, COLCHICINE, reference compound]",Avg Exudate Vol,"[1]; 1 mpk SC, Group 4",5.8 mL
same,Avg Total WBC,"[1]; 1 mpk SC, Group 4",17 ×10^6
same,Neutrophils,"[1]; 1 mpk SC, Group 4",9.9 ×10^6
same,Avg Exudate Vol,"[2]; 0.1 mpk SC, Group 3",12 mL
same,Avg Total WBC,"[2]; 0.1 mpk SC, Group 3",240 ×10^6
same,Neutrophils,"[2]; 0.1 mpk SC, Group 3",205 ×10^6
same,Avg Exudate Vol,"[2]; 1.0 mpk SC, Group 4",6 mL
same,Avg Total WBC,"[2]; 1.0 mpk SC, Group 4",22 ×10^6
same,Neutrophils,"[2]; 1.0 mpk SC, Group 4",10.8 ×10^6
"CC[C@@H](Nc1c(Nc2cccc(C(=O)N(C)C)c2O)c(=O)c1=O)c1ccc(C)o1 [Compound 2, (R)-2-hydroxy-N,N-dimethyl-3-((2-((1-(5-methylfuran-2-yl)propyl)amino)-3,4-dioxocyclobut-1-en-1-yl)amino)benzamide]",Avg Exudate Vol,"[1]; 3 mpk PO, Group 3",8.4 mL
same,Avg Total WBC,"[1]; 3 mpk PO, Group 3",22 ×10^6
same,Neutrophils,"[1]; 3 mpk PO, Group 3",11.8 ×10^6
same,inhibit CXCR-2,CXCR-2,shown to inhibit CXCR-2
"C[C@@H](Oc1cc(NS(=O)(=O)N2CCC2)nc(SCc2cccc(F)c2F)n1)[C@@H](O)CO [Compound 3, N-(2-((2,3-difluorobenzyl)thio)-6-(((2R,3S)-3,4-dihydroxybutan-2-yl)oxy)pyrimidin-4-yl)azetidine-1-sulfonamide]",Avg Exudate Vol,"[1]; 0.3 umol/kg PO, Group 5",10.7 mL
same,Avg Total WBC,"[1]; 0.3 umol/kg PO, Group 5",180 ×10^6
same,Neutrophils,"[1]; 0.3 umol/kg PO, Group 5",155 ×10^6
same,Avg Exudate Vol,"[1]; 3.0 umol/kg PO, Group 6",10 mL
same,Avg Total WBC,"[1]; 3.0 umol/kg PO, Group 6",190 ×10^6
same,Neutrophils,"[1]; 3.0 umol/kg PO, Group 6",121 ×10^6
same,Avg Exudate Vol,"[1]; 30 umol/kg PO, Groups 7, 9",7 mL
same,Avg Total WBC,"[1]; 30 umol/kg PO, Groups 7, 9",96 ×10^6
same,Neutrophils,"[1]; 30 umol/kg PO, Groups 7, 9",44.6 ×10^6
same,Avg Exudate Vol,[2]; [3],7.8 mL
same,Avg Total WBC,[2]; [3],120 ×10^6
same,Neutrophils,[2]; [3],159 ×10^6
same,Avg Exudate Vol,"[2]; 3 umol/kg PO, Group 5",11.1 mL
same,Avg Total WBC,"[2]; 3 umol/kg PO, Group 5",180 ×10^6
same,Neutrophils,"[2]; 3 umol/kg PO, Group 5",133 ×10^6
same,Avg Exudate Vol,"[2]; 30 umol/kg PO, Groups 6, 8",7.4 mL
same,Avg Total WBC,"[2]; 30 umol/kg PO, Groups 6, 8",110 ×10^6
same,Neutrophils,"[2]; 30 umol/kg PO, Groups 6, 8",65.2 ×10^6
same,inhibit CXCR-2,CXCR-2,shown to inhibit CXCR-2
"CC1CN(S(=O)(=O)Nc2cc(O[C@H](C)[C@@H](O)CO)nc(SCc3ccc(F)cc3)n2)C1 [Compound 4, N-(6-(((2R,3S)-3,4-dihydroxybutan-2-yl)oxy)-2-((4-fluorobenzyl)thio)pyrimidin-4-yl)-3-methylazetidine-1-sulfonamide]",Avg Exudate Vol,"[1]; 1.0 umol/kg PO, Group 8",10 mL
same,Avg Total WBC,"[1]; 1.0 umol/kg PO, Group 8",270 ×10^6
same,Neutrophils,"[1]; 1.0 umol/kg PO, Group 8",165 ×10^6
same,Avg Exudate Vol,"[1]; 30 umol/kg PO, Groups 7, 9",7 mL
same,Avg Total WBC,"[1]; 30 umol/kg PO, Groups 7, 9",140 ×10^6
same,Neutrophils,"[1]; 30 umol/kg PO, Groups 7, 9",95.4 ×10^6
same,Avg Exudate Vol,"[1]; 100 umol/kg PO, Group 10",6.5 mL
same,Avg Total WBC,"[1]; 100 umol/kg PO, Group 10",76 ×10^6
same,Neutrophils,"[1]; 100 umol/kg PO, Group 10",48.6 ×10^6
same,Avg Exudate Vol,[2]; [4],10.3 mL
same,Avg Total WBC,[2]; [4],210 ×10^6
same,Neutrophils,[2]; [4],179 ×10^6
same,Avg Exudate Vol,"[2]; 1 umol/kg PO, Group 7",11.8 mL
same,Avg Total WBC,"[2]; 1 umol/kg PO, Group 7",160 ×10^6
same,Neutrophils,"[2]; 1 umol/kg PO, Group 7",121 ×10^6
same,Avg Exudate Vol,"[2]; 30 umol/kg PO, Groups 6, 8",8.1 mL
same,Avg Total WBC,"[2]; 30 umol/kg PO, Groups 6, 8",100 ×10^6
same,Neutrophils,"[2]; 30 umol/kg PO, Groups 6, 8",69.6 ×10^6
same,inhibit CXCR-2,CXCR-2,shown to inhibit CXCR-2
